Read-outs that look alike come from different tables or passages of the source.
Legend:
[1] = system: Leishmania donovani LV9 axenic amastigotes; assay: In vitro anti-leishmanial testing on axenic amastigotes (resazurin); assay type: cell-based; details: then resazurin 24 h
Protocol: (§1) Leishmania donovani promastigotes (MHOM/ET/67/HU3/LV9) were cultured with 5% CO2 in M199 complete medium containing M199 medium supplemented with 100 μM adenosine, 0.5 mg/L hemin, 40 mM Hepes pH 7.4 and 10% heat inactivated fetal bovine serum (HIFBS) in the dark at 26 °C. Late log promastigotes diluted at 1 × 10^6/mL in M199 complete medium acidified at pH 5.5 and cultured at 37 °C with 5% CO2 provided the cultures of axenic amastigotes of L. donovani.
Previously described protocols were adapted for evaluation of compounds on L. donovani. For axenic amastigotes, two-fold serial dilutions of the compounds were done in 96-well microplates with 100 μL of complete medium (see above). Axenic amastigotes were then added to each well at a density of […] in a 200 μL final volume. After 72 h of incubation with 5% CO2 at 37 °C, 20 μL of resazurin (450 μM) was added to each well and further incubated with 5% CO2 at 37 °C for 24 h in the dark. Resazurin is reduced to resorufin in living cells and can be then monitored by measuring OD570nm (resorufin) and OD600nm (resazurin; Lab systems Multiskan MS). Compound activity was expressed as IC50 (µM). The drug used for reference was Amphotericin B (AmB).

[2] = system: Leishmania donovani LV9 intramacrophage amastigotes; assay: In vitro anti-leishmanial testing on intramacrophage amastigotes (RAW 264.7, Sybr Green I); assay type: cell-based; details: for SI = CC50/IC50 Intramacro. Amas.: CC50 RAW 264.7 / IC50 intramacrophage amastigotes; for IC50: Leishmania donovani, RAW264.7, RAW 264.7 macrophages, 48 h treatment
Protocol: as §1
(§2) RAW 264.7 macrophages were grown with 5% CO2 in DMEM complete medium containing Dulbecco’s Modified Eagle’s Medium (DMEM) with 100 U/mL penicillin-streptomycin, and 10% HIFBS at 37 °C.
For intramacrophage amastigote testing, RAW 264.7 macrophages were incubated with 5% CO2 at 37 °C for 24 h after being plated in 96-well microplates at a density of 2 × 10^4 cells per well. Axenic amastigotes were differentiated as described above, centrifuged at 2000 g for 10 min, re-suspended in DMEM complete medium, and added to each well to reach a 16:1 parasite to macrophage ratio. 24 h of infection with 5% CO2 at 37 °C proceeded, and extracellular parasites were removed. This was followed by addition to each well of DMEM complete medium (100 μL) containing two-fold serial dilutions of the compounds from a maximal concentration of 100 μM. The medium was removed following treatment of 48 h and replaced by Direct PCR Lysis Reagent (100 μL; Euromedex) before 3 freeze-thaw cycles at room temperature, addition of 50 μg/mL proteinase K, and a final incubation at 55 °C overnight to allow cell lysis. 10 μL of each cell extract was then added to 40 μL of Direct PCR Lysis reagent containing Sybr Green I (0.05%; Invitrogen). Mastercycler® realplex (Eppendorf) was used to monitor DNA fluorescence. Compound activity was expressed as IC50 (µM). The drug used for reference was Amphotericin B (AmB).

[3] = Cytotoxicity test on macrophages (resazurin); assay type: cell-based; details: mouse, RAW 264.7 macrophages, 48 h incubation
Protocol: as §2
(§3) RAW 264.7 macrophages were used for cytotoxicity testing. Cells were plated in 96-well microplates at a density of 2 × 10^4 cells per well. Twenty-four hours of incubation with 5% CO2 at 37 °C followed, and then the medium was removed and to each well, 100 μL of DMEM complete medium containing two-fold serial dilutions of the compounds were added. This was followed by 48 h of incubation with 5% CO2 at 37 °C, after which 10 μL of resazurin (450 μM) was added to each well, and further incubated with 5% CO2, in the dark for 4 h at 37 °C. Cell viability was then monitored as above. Compound cytotoxicity was expressed as CC50 (Cytotoxic Concentration 50%: concentration inhibiting the macrophages growth by 50%).

[4] = system: Leishmania donovani LV9 axenic amastigotes; assay: In vitro anti-leishmanial testing on axenic amastigotes (resazurin); assay type: cell-based; details: against Leishmania axenic amastigotes (as worded)
RAW 264.7 macrophages = assay: Cytotoxicity test on macrophages (resazurin); assay type: cell-based; details: as defined
Protocol: as §2, §3

Leishmania = system: Leishmania; parameters: method as in PMID 18353643; details: read-out: IC50 of reference drug miltefosine; cited from earlier work
[5] = Table 2, 72 h incubation, read-out: Leishmania donovani LV9 axenic Amastigotes Forms IC50 ± SD
[6] = Table 2, read-out: Leishmania donovani Intramacrophage Amastigotes Forms IC50 ± SD
[7] = Table 2, read-out: Toxicity on RAW 264.7 Macrophages CC50 ± SD
[8] = Table 3, read-out: Leishmania donovani LV9 Intramacrophage Amastigotes IC50 ± SD

| SMILES | IC50 [1, 5] | SI = CC50/IC50 Intramacro. Amas. [2] | IC50 [2, 6] | melting point | CC50 at 48 h [3, 7] | IC50 ([1]; Table 3, 72 h incubation, read-out: Leishmania donovani LV9 Axenic Amastigotes IC50 ± SD) | IC50 [2, 8] | CC50 at 48 h ([3]; Table 3, read-out: Cytotoxicity on RAW 264.7 Macrophages CC50 ± SD) | selectivity index (SI) [4] | selectivity index (SI, CC50 for macrophage/IC50 for promastigotes) (RAW 264.7 macrophages) | IC50 (Leishmania) |
| --- | --- | --- | --- | --- | --- | --- | --- | --- | --- | --- | --- |
| Cc1csc(C=NNC(=O)c2ccco2)n1 [Compound 1, N’-[(4-Methyl-2-thiazolyl)methylene]furan-2-carbohydrazide] | 11.9 ± 1.87 µM | 2.2 | 6.25 ± 1.89 µM | 121 to 124 °C | 13.9 ± 2.11 µM |  |  |  |  |  |  |
| NC(=NO)c1cccc([N+](=O)[O-])c1 [Compound 7, 3-Nitrobenzamidoxime] | 51.2 ± 4.98 µM | >2.1 | 47.2 ± 3.12 µM | 182 to 184 °C | > 100 µM |  |  |  |  |  |  |
| O=C(NN=Cc1nc2ccccc2s1)c1ccncc1 [Compound 5, N’-[(2-Benzothiazolyl)methylene]pyridine-4-carbohydrazide] | 61.5 ± 5.99 µM | >1.8 | 55.2 ± 4.77 µM | 234 to 237 °C | > 100 µM |  |  |  |  |  |  |
| O=C(NN=Cc1ccc(Br)s1)c1ccco1 [Compound 3, N’-[(5-Bromo-2-thiophenyl)methylene]furan-2-carbohydrazide] | > 100 µM |  | > 100 µM | 201 to 202 °C | > 100 µM |  |  |  |  |  |  |
| COC(=O)c1c(C(=O)OC)c2c3ccccc3ccn2c1-c1nc2cc([N+](=O)[O-])ccc2[nH]1 [Compound 12, Dimethyl 3-(5-nitro-1H-benzo[d]imidazol-2-yl)pyrrolo[2,1-a]isoquinoline-1,2-dicarboxylate] | > 100 µM |  | > 100 µM | 162 °C | > 100 µM |  |  |  |  |  |  |
| O=C(NN=Cc1nc2ccccc2s1)c1cccs1 [Compound 4, N’-[(2-Benzothiazolyl)methylene]thiophene-2-carbohydrazide] | 12.5 ± 0.61 µM | 1.4 | 11.2 ± 0.62 µM | 231 to 234 °C | 16.3 ± 1.42 µM |  |  |  |  |  |  |
| C[C@@H]1[C@H](O)[C@@H](C)/C=C/C=C/C=C/C=C/C=C/C=C/C=C/[C@H](O[C@@H]2O[C@H](C)[C@@H](O)[C@H](N)[C@@H]2O)C[C@@H]2O[C@](O)(C[C@@H](O)C[C@@H](O)[C@H](O)CC[C@@H](O)C[C@@H](O)CC(=O)O[C@H]1C)C[C@H](O)[C@H]2C(=O)O [AmB, Amphotericin B, reference compound] |  | 48.7 |  |  |  | 0.2 ± 0.08 µM | 0.11 ± 0.09 µM | 5.36 ± 0.52 µM |  |  |  |
| COC(=O)c1c(C(=O)OC)c2ccccn2c1-c1nc2cc([N+](=O)[O-])ccc2[nH]1 [Compound 11, Dimethyl 3-(5-nitro-1H-benzo[d]imidazol-2-yl)indolizine-1,2-dicarboxylate] |  |  |  | 234 °C |  |  |  |  |  |  |  |
| COCc1nc(-c2ccc3c(c2)OCO3)no1 [Compound 8] | 59.9 ± 6.45 µM | >1.9 | 51.3 ± 4.35 µM | 56 to 57 °C | > 100 µM |  |  |  |  |  |  |
| O=C(NN=Cc1ccc(Br)s1)c1cccs1 [Compound 2, N’-[(5-Bromo-2-thiophenyl)methylene]thiophene-2-carbohydrazide] | 1.09 ± 0.12 µM | 2.2 | 2.18 ± 0.01 µM |  | 4.87 ± 0.39 µM |  | < 5 µM |  | 2 | ≥ 2 |  |
| COC(=O)c1cc(-c2nc3cc([N+](=O)[O-])ccc3[nH]2)n2ccc3ccccc3c12 [Compound 13, Methyl 3-(5-nitro-1H-benzo[d]imidazol-2-yl)pyrrolo[2,1-a]isoquinoline-1-carboxylate] |  |  |  | 280 °C |  |  |  |  |  |  |  |
| CCCCCCCCCCCCCCCCOP(=O)([O-])OCC[N+](C)(C)C [miltefosine] |  |  |  |  |  |  |  |  |  |  | 0.31 µM |

Source: publication PMC6480966, “Synthesis, In Silico, and In Vitro Evaluation of Anti-Leishmanial Activity of Oxadiazoles and Indolizine Containing Compounds Flagged against Anti-Targets” (Molecules, 2019)
